Entries after “also recorded” stand apart in the source; their conditions may differ.
Assays:
[1] = system: β-N-acetylglucosaminidase EC 3.2.1.52; assay: Commercial glycosidase screening; format: biochemical
Procedure: (§1) Preliminary biological evaluation of compounds 14 and 15 (at 100 μM inhibitor concentration) was performed toward a panel of 12 commercial glycosidases (α-L-fucosidase EC 3.2.1.51 from Homo sapiens, α-galactosidase EC 3.2.1.22 from coffee beans, β-galactosidases EC 3.2.1.23 from Escherichia coli and Aspergillus oryzae, α-glucosidases EC 3.2.1.20 from yeast and rice, amyloglucosidase EC 3.2.1.3 from Aspergillus niger, β-glucosidase EC 3.2.1.21 from almonds, α-mannosidase EC 3.2.1.24 from Jack beans, β-mannosidase EC 3.2.1.25 from snail, and β-N-acetylglucosaminidases EC 3.2.1.52 from Jack beans and bovine kidney).
(§2) The percentage (%) of inhibition for compounds 14 and 15 toward the corresponding glycosidase was determined by quadruplicate in the presence of 100 μM of the inhibitor on the well. Each enzymatic assay (final volume 0.12 mL) contains 0.01–0.5 units/mL of the enzyme (with previous calibration) and 4.2 mM aqueous solution of the appropriate p-nitrophenyl glycopyranoside (substrate) buffered to the optimal pH of the enzyme. Enzyme and inhibitor were pre-incubated for 5 min at rt, and the reaction started by addition of the substrate. After 20 min of incubation at 37 °C, the reaction was stopped by addition of 0.1 mL of sodium borate solution (pH 9.8). The p-nitrophenolate formed was measured by visible absorption spectroscopy at 405 nm (Asys Expert 96 spectrophotometer). Under these conditions, the p-nitrophenolate released led to optical densities linear with both reaction time and concentration of the enzyme.
(§3) Biological screening towards commercial glycosidases
(§4) α-L-fucosidase EC 3.2.1.51
(§5) α-galactosidase EC 3.2.1.22
(§6) β-galactosidase EC 3.2.1.23
(§7) α-glucosidase EC 3.2.1.20
(§8) amyloglucosidase EC 3.2.1.3
(§9) β-glucosidase EC 3.2.1.21
(§10) α-mannosidase EC 3.2.1.24
(§11) β-mannosidase EC 3.2.1.25
(§12) β-N-acetylglucosaminidase EC 3.2.1.52
(§13) “-“: no inhibition (or less than 15%) detected.

[2] = system: α-glucosidase EC 3.2.1.20; assay: Commercial glycosidase screening; format: biochemical
Procedure: as §1, §2, §3, §4, §5, §6, §7, §8, §9, §10, §11, §12, §13

[3] = molecular target: T1, β-galactosidase EC 3.2.1.23 (Aspergillus oryzae, UniProt Q2UCU3); assay: Commercial glycosidase screening; format: biochemical; conditions: read-out: % Inhibition at 0.1 mM
T1 construct: purchased
Procedure: as §1, §2, §3, §4, §5, §6, §7, §8, §9, §10, §11, §12, §13

[4] = molecular target: T2, β-galactosidase EC 3.2.1.23 (Escherichia coli, UniProt P00722); assay: Commercial glycosidase screening; format: biochemical; conditions: read-out: % Inhibition at 0.1 mM
T2 construct: purchased
Procedure: as §1, §2, §3, §4, §5, §6, §7, §8, §9, §10, §11, §12, §13

[5] = molecular target: T3, GCase in fibroblasts bearing the L444P/L444P mutations (Homo sapiens, UniProt P04062, L483P); assay: Pharmacological chaperoning activity in L444P/L444P Gaucher fibroblasts; format: cell-based; conditions: for cell viability: 50 µM, 4 days; for GCase enzymatic activity rescue: 4 days incubation, 5 nM to 10 μM
T3 construct: fibroblasts derived from Gaucher patients bearing the N370S/RecNcil and L444P/L444P mutations; host or cells: fibroblasts from Gaucher disease patients, L444P/L444P
T3 sequence (P04062 40-536 L483P): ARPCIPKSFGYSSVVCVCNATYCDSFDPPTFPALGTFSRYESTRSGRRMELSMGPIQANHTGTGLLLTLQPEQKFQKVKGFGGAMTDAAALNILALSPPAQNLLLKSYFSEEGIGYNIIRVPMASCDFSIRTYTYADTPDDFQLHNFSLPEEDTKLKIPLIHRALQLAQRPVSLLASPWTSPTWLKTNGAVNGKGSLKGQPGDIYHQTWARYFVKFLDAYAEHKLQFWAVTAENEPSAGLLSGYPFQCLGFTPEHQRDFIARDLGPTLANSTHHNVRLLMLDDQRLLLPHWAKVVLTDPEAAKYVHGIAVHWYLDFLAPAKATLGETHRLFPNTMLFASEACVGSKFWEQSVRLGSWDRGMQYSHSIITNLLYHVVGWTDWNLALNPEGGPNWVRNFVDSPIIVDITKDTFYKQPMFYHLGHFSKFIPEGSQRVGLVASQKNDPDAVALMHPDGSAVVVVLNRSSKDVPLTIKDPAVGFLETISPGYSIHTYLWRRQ
Procedure: The ability of compounds 14 and 15 to enhance the activity of GCase after incubation (4 days) with fibroblasts bearing the selected mutations was evaluated. The experiments were performed using fibroblasts derived from Gaucher patients bearing the N370S/RecNcil and L444P/L444P mutations (see the Supporting Information section).
Fibroblasts with the N370S/RecNcil (or L444P/L444P) mutation from Gaucher disease patients were obtained from the “Cell line and DNA Biobank from patients affected by Genetic Diseases” (Gaslini Hospital, Genova, Italy). Fibroblast cells (15.0 × 10^4) were seeded in T25 flasks with DMEM supplemented with fetal bovine serum (10%), penicillin/streptomycin (1%), and glutamine (1%) and incubated at 37 °C with 5% CO2 for 24 h. The medium was removed, and fresh medium containing the compounds (14, 15 and 33·HCl) was added to the cells and incubated for 4 days. The medium was removed, and the cells were washed with PBS and detached with trypsin to obtain cell pellets, which were washed four times with PBS, frozen, and lysed by sonication in water. Enzyme activity was measured as reported above. Reported data are mean S.D. (n = 2).
Figure S52. Fibroblasts derived from GD patients bearing L444P/L444P mutations were incubated without (control, ctrl) or with 7 different concentrations (5 nM, 10 nM, 50 nM, 100 nM, 1 µM, 10 µM, 50 µM) of compounds 14 or 15. After 4 days, the flasks containing cells incubated with 50 µM […]
other concentrations, the GCase activity was determined in lysates from treated fibroblasts. Reported data are mean S.D. (n=2).
(also on this page, place not known: beta glucosidase activity (nmol/mg/h) beta glucosidase activity (nmol/mg/h))

[6] = molecular target: T4, α-mannosidase EC 3.2.1.24 (Canavalia ensiformis, UniProt C0HJB3); assay: Commercial glycosidase screening; format: biochemical; conditions: Jack beans, read-out: % Inhibition at 0.1 mM
T4 construct: purchased
Procedure: as §1, §2, §3, §4
(§14) α-galactosidase EC 3.2.1.22 […]
as §9, §10
(§15) β-mannosidase EC 3.2.1.25 […]
as §13

[7] = molecular target: T5, α-galactosidase EC 3.2.1.22 (Coffea arabica, UniProt Q42656); assay: Commercial glycosidase screening; format: biochemical; conditions: coffee beans, read-out: % Inhibition at 0.1 mM
T5 construct: purchased
Procedure: as §1, §2, §3, §4, §14, §9, §10, §15, §13

[8] = system: α-L-fucosidase EC 3.2.1.51; assay: Commercial glycosidase screening; format: biochemical; conditions: Homo sapiens
Procedure: as §1, §2, §3, §4, §14, §9, §10, §15, §13

[9] = system: β-glucosidase EC 3.2.1.21; assay: Commercial glycosidase screening; format: biochemical; conditions: almonds
Procedure: as §1, §2, §3, §4, §14, §9, §10, §15, §13

[10] = molecular target: T6, amyloglucosidase EC 3.2.1.3 (Aspergillus niger, UniProt P69328); assay: Commercial glycosidase screening; format: biochemical; conditions: read-out: % Inhibition at 0.1 mM
T6 construct: purchased
Procedure: as §1, §2, §3, §4, §14, §9, §10, §15, §13

[11] = system: β-mannosidase EC 3.2.1.25; assay: Commercial glycosidase screening; format: biochemical; conditions: snail
Procedure: as §1, §2, §3, §4, §14, §9, §10, §15, §13

T1 sequence (Q2UCU3 19-1005): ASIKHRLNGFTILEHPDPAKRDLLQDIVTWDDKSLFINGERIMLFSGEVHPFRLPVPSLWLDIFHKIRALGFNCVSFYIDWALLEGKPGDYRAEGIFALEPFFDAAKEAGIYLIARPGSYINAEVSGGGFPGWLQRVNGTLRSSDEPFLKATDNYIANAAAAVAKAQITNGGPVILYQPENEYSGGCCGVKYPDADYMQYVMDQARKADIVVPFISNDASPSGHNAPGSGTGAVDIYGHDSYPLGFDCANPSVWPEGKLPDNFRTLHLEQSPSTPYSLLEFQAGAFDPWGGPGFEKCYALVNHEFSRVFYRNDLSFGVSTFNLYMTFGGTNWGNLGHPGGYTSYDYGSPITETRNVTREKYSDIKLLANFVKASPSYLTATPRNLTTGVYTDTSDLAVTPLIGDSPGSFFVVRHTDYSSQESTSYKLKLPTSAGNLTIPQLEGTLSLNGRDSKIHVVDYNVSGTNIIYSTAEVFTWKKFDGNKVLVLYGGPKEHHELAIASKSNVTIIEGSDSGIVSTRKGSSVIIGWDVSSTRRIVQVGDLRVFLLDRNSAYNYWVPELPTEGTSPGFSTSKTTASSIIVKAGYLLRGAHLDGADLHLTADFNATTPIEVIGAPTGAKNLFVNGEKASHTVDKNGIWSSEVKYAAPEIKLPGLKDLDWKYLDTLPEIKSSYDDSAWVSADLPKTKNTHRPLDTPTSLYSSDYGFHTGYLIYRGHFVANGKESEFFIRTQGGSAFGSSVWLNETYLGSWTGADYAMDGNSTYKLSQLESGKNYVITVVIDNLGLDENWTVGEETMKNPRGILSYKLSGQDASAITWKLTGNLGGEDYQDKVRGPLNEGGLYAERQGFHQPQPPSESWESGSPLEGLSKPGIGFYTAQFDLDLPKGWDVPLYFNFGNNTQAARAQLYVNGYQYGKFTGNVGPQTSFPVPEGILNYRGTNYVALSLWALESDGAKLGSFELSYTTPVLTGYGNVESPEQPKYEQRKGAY
T2 sequence (P00722 2-1024): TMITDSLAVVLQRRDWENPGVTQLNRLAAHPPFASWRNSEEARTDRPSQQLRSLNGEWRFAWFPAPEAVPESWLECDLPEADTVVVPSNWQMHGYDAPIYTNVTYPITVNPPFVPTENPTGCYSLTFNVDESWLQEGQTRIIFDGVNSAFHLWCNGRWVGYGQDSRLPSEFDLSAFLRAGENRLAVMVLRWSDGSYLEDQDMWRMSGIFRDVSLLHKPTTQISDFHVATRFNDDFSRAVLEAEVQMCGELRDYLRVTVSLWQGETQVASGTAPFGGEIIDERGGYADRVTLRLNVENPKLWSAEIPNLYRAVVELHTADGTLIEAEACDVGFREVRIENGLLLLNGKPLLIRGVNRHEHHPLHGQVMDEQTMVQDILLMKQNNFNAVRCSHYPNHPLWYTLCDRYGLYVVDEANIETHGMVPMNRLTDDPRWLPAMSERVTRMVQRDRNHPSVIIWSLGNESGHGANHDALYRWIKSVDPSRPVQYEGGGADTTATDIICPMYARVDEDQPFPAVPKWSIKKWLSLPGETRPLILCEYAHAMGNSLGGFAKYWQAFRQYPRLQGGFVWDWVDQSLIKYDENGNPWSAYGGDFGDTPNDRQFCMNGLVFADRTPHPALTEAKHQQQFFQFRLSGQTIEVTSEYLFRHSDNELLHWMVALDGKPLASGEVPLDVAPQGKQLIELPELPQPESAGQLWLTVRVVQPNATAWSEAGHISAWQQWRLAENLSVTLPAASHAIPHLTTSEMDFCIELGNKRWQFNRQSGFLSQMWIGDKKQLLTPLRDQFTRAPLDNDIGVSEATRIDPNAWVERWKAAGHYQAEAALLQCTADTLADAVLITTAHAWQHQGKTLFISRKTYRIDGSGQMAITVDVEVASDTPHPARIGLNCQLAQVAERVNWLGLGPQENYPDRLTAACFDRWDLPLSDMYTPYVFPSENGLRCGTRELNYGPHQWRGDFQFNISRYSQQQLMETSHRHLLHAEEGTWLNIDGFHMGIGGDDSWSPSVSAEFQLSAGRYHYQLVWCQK
T6 sequence (P69328 25-640): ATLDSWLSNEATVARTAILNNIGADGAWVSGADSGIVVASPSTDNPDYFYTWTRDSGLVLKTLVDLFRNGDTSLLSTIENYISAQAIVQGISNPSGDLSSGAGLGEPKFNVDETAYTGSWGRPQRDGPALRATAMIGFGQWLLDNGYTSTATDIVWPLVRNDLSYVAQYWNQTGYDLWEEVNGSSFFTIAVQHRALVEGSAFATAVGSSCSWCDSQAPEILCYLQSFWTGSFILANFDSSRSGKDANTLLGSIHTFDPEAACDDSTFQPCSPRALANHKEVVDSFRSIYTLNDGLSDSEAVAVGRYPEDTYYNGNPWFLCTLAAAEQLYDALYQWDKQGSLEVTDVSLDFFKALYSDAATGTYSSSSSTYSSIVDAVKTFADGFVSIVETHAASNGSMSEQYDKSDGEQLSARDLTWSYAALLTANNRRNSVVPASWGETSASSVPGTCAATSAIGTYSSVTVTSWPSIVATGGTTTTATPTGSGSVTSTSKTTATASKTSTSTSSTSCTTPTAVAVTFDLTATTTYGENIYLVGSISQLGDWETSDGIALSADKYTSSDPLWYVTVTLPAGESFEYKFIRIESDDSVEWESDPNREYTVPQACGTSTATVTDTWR
T4 sequence (C0HJB3 whole entry): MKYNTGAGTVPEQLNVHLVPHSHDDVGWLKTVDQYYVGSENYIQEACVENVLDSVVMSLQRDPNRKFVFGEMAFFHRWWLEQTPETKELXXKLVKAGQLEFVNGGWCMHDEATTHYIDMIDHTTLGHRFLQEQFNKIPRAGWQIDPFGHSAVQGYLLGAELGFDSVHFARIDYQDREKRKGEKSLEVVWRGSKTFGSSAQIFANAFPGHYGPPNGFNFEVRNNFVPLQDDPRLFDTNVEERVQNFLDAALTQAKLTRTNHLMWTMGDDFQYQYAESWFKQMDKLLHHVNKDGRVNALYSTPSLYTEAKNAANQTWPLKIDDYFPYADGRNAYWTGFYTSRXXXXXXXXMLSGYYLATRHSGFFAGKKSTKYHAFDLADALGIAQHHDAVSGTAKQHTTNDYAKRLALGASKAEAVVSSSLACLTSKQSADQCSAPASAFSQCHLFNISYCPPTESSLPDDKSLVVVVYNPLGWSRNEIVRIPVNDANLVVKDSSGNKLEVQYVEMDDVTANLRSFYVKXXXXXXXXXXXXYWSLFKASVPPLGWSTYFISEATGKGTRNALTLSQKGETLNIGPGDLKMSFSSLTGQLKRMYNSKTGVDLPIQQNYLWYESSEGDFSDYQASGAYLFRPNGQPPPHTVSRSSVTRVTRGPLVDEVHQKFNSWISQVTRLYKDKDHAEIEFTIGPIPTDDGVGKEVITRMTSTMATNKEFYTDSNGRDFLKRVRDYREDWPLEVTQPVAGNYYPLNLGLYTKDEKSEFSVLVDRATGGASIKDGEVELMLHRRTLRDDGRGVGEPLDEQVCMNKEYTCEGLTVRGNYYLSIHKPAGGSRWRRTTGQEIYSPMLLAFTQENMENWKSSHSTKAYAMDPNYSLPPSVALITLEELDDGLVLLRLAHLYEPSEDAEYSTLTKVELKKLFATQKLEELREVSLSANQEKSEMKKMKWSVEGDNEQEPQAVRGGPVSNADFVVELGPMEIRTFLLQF
T5 sequence (Q42656 16-378): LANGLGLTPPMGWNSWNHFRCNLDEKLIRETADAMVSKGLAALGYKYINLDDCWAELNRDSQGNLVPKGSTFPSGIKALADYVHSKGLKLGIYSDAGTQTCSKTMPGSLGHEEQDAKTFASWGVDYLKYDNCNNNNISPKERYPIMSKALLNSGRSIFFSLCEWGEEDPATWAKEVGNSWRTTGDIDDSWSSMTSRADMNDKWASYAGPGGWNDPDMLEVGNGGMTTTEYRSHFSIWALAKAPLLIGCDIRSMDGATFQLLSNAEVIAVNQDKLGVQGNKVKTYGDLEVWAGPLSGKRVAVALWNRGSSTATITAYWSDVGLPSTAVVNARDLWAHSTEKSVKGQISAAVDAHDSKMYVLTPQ

| Structure (SMILES) | % Inhibition at 0.1 mM ([1]; Jack beans) | % Inhibition at 0.1 mM ([1]; bovine kidney) | % Inhibition at 0.1 mM ([2]; rice) | % Inhibition at 0.1 mM ([2]; yeast) | inhibition at 100 µM [3] [%] | inhibition at 100 µM [4] [%] | cell viability [5] | GCase enzymatic activity rescue [5] | inhibition at 100 µM [6] [%] | inhibition at 100 µM [7] [%] | % Inhibition at 0.1 mM [8] | % Inhibition at 0.1 mM [9] | inhibition at 100 µM [10] [%] | % Inhibition at 0.1 mM [11] |
| --- | --- | --- | --- | --- | --- | --- | --- | --- | --- | --- | --- | --- | --- | --- |
| CCCCCCCC[C@H]1[C@@H](O)[C@H](O)[C@H](O)CN1CCCCCCCC [compound 14, (2S,3R,4R,5R)-1,2-Dioctylpiperidine-3,4,5-triol] | - (“-“: no inhibition (or less than 15%) detected.) | - (“-“: no inhibition (or less than 15%) detected.) | - (“-“: no inhibition (or less than 15%) detected.) | - (“-“: no inhibition (or less than 15%) detected.) | < 15 | < 15 | low cell viability | no enzymatic activity rescue; also recorded: no GCase activity enhancements | < 15 | < 15 | - (“-“: no inhibition (or less than 15%) detected.) | 30% | < 15 | - (“-“: no inhibition (or less than 15%) detected.) |
| CCCCCCCC[C@@H]1[C@@H](O)[C@H](O)[C@H](O)CN1CCCCCCCC [compound 15, (2R,3R,4R,5R)-1,2-Dioctylpiperidine-3,4,5-triol] | - (“-“: no inhibition (or less than 15%) detected.) | - (“-“: no inhibition (or less than 15%) detected.) | - (“-“: no inhibition (or less than 15%) detected.) | - (“-“: no inhibition (or less than 15%) detected.) | < 15 | < 15 | low cell viability | no enzymatic activity rescue; also recorded: no GCase activity enhancements | < 15 | < 15 | - (“-“: no inhibition (or less than 15%) detected.) | - (“-“: no inhibition (or less than 15%) detected.) | < 15 | - (“-“: no inhibition (or less than 15%) detected.) |

Source: paper PMC8453635, “Piperidine Azasugars Bearing Lipophilic Chains: Stereoselective Synthesis and Biological Activity as Inhibitors of Glucocerebrosidase (GCase)” (The Journal of Organic Chemistry, 2021)
